Laboratory results published in ChEMBL document CHEMBL1143705, “Cytotoxic dibromotyrosine-derived metabolites from the sponge Aplysina gerardogreeni” (2007).

Columns and labels:
Format in all cases: functional
Settings in all cases: for CC50: read-out: LC50 (the source's name)
MDA-MB-231 = experiment: Cytotoxicity against human MDA-MB-231 cells by SRB assay
A549 = experiment: Cytotoxicity against human A549 cells by SRB assay
HT-29 = experiment: Cytotoxicity against human HT29 cells by SRB assay

Structure (SMILES): COC1=C(Br)[C@H](O)[C@@]2(C=C1Br)CC(C(=O)NCCCCCNC(=O)C1=NO[C@]3(C=C(Br)C(OC)(OC)[C@@H](Br)[C@@H]3O)C1)=NO2
- GI50 (MDA-MB-231): 4.2 µM
- TGI (MDA-MB-231): 6 µM
- CC50 (MDA-MB-231): 9.6 µM
- GI50 (A549): 7.1 µM
- TGI (A549): > 10 µg/mL
- CC50 (A549): > 10 µg/mL
- GI50 (HT-29): 4.8 µM
- TGI (HT-29): > 10 µg/mL
- CC50 (HT-29): > 10 µg/mL

Structure (SMILES): O=C(NCCCCCNC(=O)C1=NO[C@]2(C=C(Br)C(=O)[C@H](Br)[C@@H]2O)C1)C1=NO[C@]2(C=C(Br)C(=O)[C@H](Br)[C@@H]2O)C1
- GI50 (MDA-MB-231): 1.7 µM
- TGI (MDA-MB-231): 2.4 µM
- CC50 (MDA-MB-231): 3.5 µM
- GI50 (A549): 2.4 µM
- TGI (A549): 3.5 µM
- CC50 (A549): 5.5 µM
- GI50 (HT-29): 1.6 µM
- TGI (HT-29): 2.5 µM
- CC50 (HT-29): 3.7 µM

Structure (SMILES): COC1=C(Br)[C@H](O)[C@@]2(C=C1Br)CC(C(=O)NCCCCCNC(=O)C1=NO[C@]3(C=C(Br)C(=O)[C@H](Br)[C@@H]3O)C1)=NO2
- GI50 (MDA-MB-231): 3.5 µM
- TGI (MDA-MB-231): 4.9 µM
- CC50 (MDA-MB-231): 6.7 µM
- GI50 (A549): 5.4 µM
- TGI (A549): 8.7 µM
- CC50 (A549): 11.2 µM
- GI50 (HT-29): 4.8 µM
- TGI (HT-29): 5 µM
- CC50 (HT-29): 5.4 µM

Structure (SMILES): COC1=C(Br)[C@H](O)[C@@]2(C=C1Br)CC(C(=O)NCCCCNC(=O)C1=NO[C@]3(C=C(Br)C(=O)[C@H](Br)[C@@H]3O)C1)=NO2
- GI50 (MDA-MB-231): 2.9 µM
- TGI (MDA-MB-231): 4.7 µM
- CC50 (MDA-MB-231): 8 µM
- GI50 (A549): 5.6 µM
- TGI (A549): > 10 µg/mL
- CC50 (A549): > 10 µg/mL
- GI50 (HT-29): 3.4 µM
- TGI (HT-29): 4.9 µM
- CC50 (HT-29): 8.5 µM

Structure (SMILES): COC1(OC)C(Br)=C[C@@]2(CC(C(=O)NCCCCCNC(=O)C3=NO[C@]4(C=C(Br)C(OC)(OC)[C@@H](Br)[C@@H]4O)C3)=NO2)[C@@H](O)[C@@H]1Br
- GI50 (MDA-MB-231): > 10 µg/mL
- TGI (MDA-MB-231): > 10 µg/mL
- CC50 (MDA-MB-231): > 10 µg/mL
- GI50 (A549): > 10 µg/mL
- TGI (A549): > 10 µg/mL
- CC50 (A549): > 10 µg/mL
- GI50 (HT-29): > 10 µg/mL
- TGI (HT-29): > 10 µg/mL
- CC50 (HT-29): > 10 µg/mL

Structure (SMILES): COC1=C(Br)[C@H](O)[C@@]2(C=C1Br)CC(C(=O)NCCCCNC(=O)C1=NO[C@]3(C=C(Br)C(OC)=C(Br)[C@@H]3O)C1)=NO2 [AEROTHIONIN]
- GI50 (MDA-MB-231): > 10 µg/mL
- TGI (MDA-MB-231): > 10 µg/mL
- CC50 (MDA-MB-231): > 10 µg/mL
- GI50 (A549): > 10 µg/mL
- TGI (A549): > 10 µg/mL
- CC50 (A549): > 10 µg/mL
- GI50 (HT-29): > 10 µg/mL
- TGI (HT-29): > 10 µg/mL
- CC50 (HT-29): > 10 µg/mL

Structure (SMILES): COC1=C(Br)[C@H](O)[C@@]2(C=C1Br)CC(C(=O)NCCCCCNC(=O)C1=NO[C@]3(C=C(Br)C(=O)[C@@H](Br)[C@@H]3O)C1)=NO2 [APLYSINONE A]
- GI50 (MDA-MB-231): 3.3 µM
- TGI (MDA-MB-231): 5.4 µM
- CC50 (MDA-MB-231): 8.2 µM
- GI50 (A549): 4.5 µM
- TGI (A549): 7.1 µM
- CC50 (A549): > 10 µg/mL
- GI50 (HT-29): 2.8 µM
- TGI (HT-29): 4.8 µM
- CC50 (HT-29): 9.1 µM

Structure (SMILES): O=C(NCCCCCNC(=O)C1=NO[C@]2(C=C(Br)C(=O)[C@@H](Br)[C@@H]2O)C1)C1=NO[C@]2(C=C(Br)C(=O)[C@@H](Br)[C@@H]2O)C1 [APLYSINONE B]
- GI50 (MDA-MB-231): 1.6 µM
- TGI (MDA-MB-231): 2.1 µM
- CC50 (MDA-MB-231): 3 µM
- GI50 (A549): 2 µM
- TGI (A549): 2.9 µM
- CC50 (A549): 4.1 µM
- GI50 (HT-29): 1.5 µM
- TGI (HT-29): 2.1 µM
- CC50 (HT-29): 3 µM

Structure (SMILES): COC1=C(Br)[C@H](O)[C@@]2(C=C1Br)CC(C(=O)NCCCCCNC(=O)C1=NO[C@]3(C=C(Br)C(=O)[C@@H]4O[C@@H]43)C1)=NO2 [APLYSINONE C]
- GI50 (MDA-MB-231): 5.6 µM
- TGI (MDA-MB-231): 5.8 µM
- CC50 (MDA-MB-231): 6.4 µM
- GI50 (A549): 10.7 µM
- TGI (A549): > 10 µg/mL
- CC50 (A549): > 10 µg/mL
- GI50 (HT-29): 12.6 µM
- TGI (HT-29): > 10 µg/mL
- CC50 (HT-29): > 10 µg/mL

Structure (SMILES): COC1=C(Br)[C@H](O)[C@@]2(C=C1Br)CC(C(=O)NCCCCNC(=O)C1=NO[C@]3(C=C(Br)C(=O)[C@@H](Br)[C@@H]3O)C1)=NO2 [APLYSINONE D]
- GI50 (MDA-MB-231): 3.5 µM
- TGI (MDA-MB-231): 5 µM
- CC50 (MDA-MB-231): 7.6 µM
- GI50 (A549): 5.7 µM
- TGI (A549): > 10 µg/mL
- CC50 (A549): > 10 µg/mL
- GI50 (HT-29): 4.1 µM
- TGI (HT-29): 5.2 µM
- CC50 (HT-29): 11.3 µM

Structure (SMILES): COc1cccc2c1C(=O)c1c(O)c3c(c(O)c1C2=O)C[C@@](O)(C(=O)CO)C[C@@H]3O[C@H]1C[C@H](N)[C@H](O)[C@H](C)O1 [DOXORUBICIN]
- GI50 (MDA-MB-231): 0.1 µM
- TGI (MDA-MB-231): 0.3 µM
- CC50 (MDA-MB-231): 1.4 µM
- GI50 (A549): 0.1 µM
- TGI (A549): 0.2 µM
- CC50 (A549): 1 µM
- GI50 (HT-29): 0.1 µM
- TGI (HT-29): 0.3 µM
- CC50 (HT-29): 0.4 µM

Structure (SMILES): COC1=C(Br)[C@H](O)[C@@]2(C=C1Br)CC(C(=O)NCCCCCNC(=O)C1=NO[C@]3(C=C(Br)C(OC)=C(Br)[C@@H]3O)C1)=NO2 [HOMOAEROTHIONIN]
- GI50 (MDA-MB-231): > 10 µg/mL
- TGI (MDA-MB-231): > 10 µg/mL
- CC50 (MDA-MB-231): > 10 µg/mL
- GI50 (A549): > 10 µg/mL
- TGI (A549): > 10 µg/mL
- CC50 (A549): > 10 µg/mL
- GI50 (HT-29): > 10 µg/mL
- TGI (HT-29): > 10 µg/mL
- CC50 (HT-29): > 10 µg/mL
